Test results as given in patent US20100029643A1 (ASTRAZENECA AB, priority 2006, published 2010).

Biological target: T1, Edg-1/S1P1 receptor (Homo sapiens, UniProt P21453)
T1 construct: expressed in transfected cells; host or cells: human osteogenic sarcoma U2OS cells: Edg-1 Transfluor U2OS WT Clone #37 (assay I), Edg-1 Transfluor U2OS Clone #3 (assay II)
Test: In vitro cell based receptor activation assay - Transfluor assay (assay I or II; beta-arrestin GFP relocalization after S1P stimulation)
Conditions: for inhibition at 3.7 µM: at 3.70 μM (titrated from top concentration 100 μM)
From the text: The following assays can be used to measure the effects of the compounds of the present invention as S1P1/Edg1 inhibitors.
I. In Vitro Cell Based Receptor Activation Assay-Transfluor Assay
(§1) This cell-based assay was designed to assess the ability of small molecule antagonists to inhibit activation of the GPCR S1P1 in the presence of its cognate ligand S1P. The assay used technology initially developed by Norak Biosciences (Xsira Pharmaceutical) and presently owned by Molecular Devices. A human osteogenic sarcoma (U2OS) cell line overexpressing the Edg-1/S1P1) receptor as well as a beta-arrestin/green fluorescent protein (GFP) construct hereafter termed Edg-1 Transfluor U2OS WT Clone #37 was employed.
Using a high content screening approach (Cellomics Arrayscan), receptor activity was measured by assessment of the relocalization of beta-arrestin GFP in response to stimulation of Edg-1 by SIP. Specifically, Edg-1 Transfluor U2OS WT Clone #37 cells were plated at a density of 6250 cells in 40 μL medium per well in 384 well plastic bottomed microtiter plates (BD Falcon) and incubated overnight at 37° C./5% CO2. Prior to screening, compounds were dissolved in 100% dimethyl sulfoxide (DMSO) to a final stock concentration of 10 mM. Compounds were then serially diluted at 30× final concentration in Edg-1 Transfluor cell growth medium containing […] using the Tecan Genesis instrument. These 30× plates were then diluted to 6× final concentration with Edg-1 Transfluor growth medium just prior to dosing. Cells were then dosed with 10 μL per well of 6× compound dilutions or 6% DMSO and pre-incubated for 15 minutes at room temperature. Cell plates were dosed with 10 μL per well 6× S1P Edg-1 Transfluor growth medium, then incubated for 45 minutes at 37° C./5% CO2. Final concentration in the well of DMSO was 1%, compound was IX (3-fold, 9 point IC50 dilutions starting at 100 μM final concentration), and either 375 nM or […] SIP ligand. Cell plates were then fixed by adding 50 μL per well of 5% formaldehyde in 1× Dulbecco's phosphate buffered saline (DPBS) directly and incubating for 30 minutes at room temperature in darkness. Fixative was removed and replaced with 50 μL per well of 1×DPBS, after which cells were stained with 10 μg/mL final concentration of Hoechst 33342 (Molecular Probes) for 15 minutes at room temperature in darkness. Stain was then removed from the plates and replaced with 50 μL per well of 1×DPBS using the BioTek ExL405 plate washer. Plates were then sealed and analysed on the Cellomics Arrayscan using the GPCR signalling algorithm. EC50 values were then calculated using IDBS ActivityBase software.
II. In Vitro Cell Based Receptor Activation Assay-Transfluor Assay
as §1, with “Devices (MDS Analytical Technologies).” for “Devices.”, “U2OS” for “U2OS WT”, “#3” for “#37”
Using a high content screening approach (Molecular Devices Image Express), receptor activity was measured by assessment of the relocalization of beta-aiTestin GFP in response to stimulation of Edg-1 by S1P. Specifically, Edg-1 Transfluor U2OS Clone #3 cells were plated at a density of 6250 cells in 44 μL medium per well in 384 well plastic bottomed microtiter plates (BD Falcon) and incubated overnight at 37° C./5% CO2. Prior to screening, compounds were dissolved in 100% dimethyl sulfoxide (DMSO) to a final stock concentration of 10 mM. Compounds were then serially diluted at 10× final concentration in Edg-1 Transfluor cell growth medium containing 6% DMSO using the BioMek instrument. […]

[1] = at 3.50 μM (titrated from top concentration 10 μM)

T1 sequence (P21453 whole entry): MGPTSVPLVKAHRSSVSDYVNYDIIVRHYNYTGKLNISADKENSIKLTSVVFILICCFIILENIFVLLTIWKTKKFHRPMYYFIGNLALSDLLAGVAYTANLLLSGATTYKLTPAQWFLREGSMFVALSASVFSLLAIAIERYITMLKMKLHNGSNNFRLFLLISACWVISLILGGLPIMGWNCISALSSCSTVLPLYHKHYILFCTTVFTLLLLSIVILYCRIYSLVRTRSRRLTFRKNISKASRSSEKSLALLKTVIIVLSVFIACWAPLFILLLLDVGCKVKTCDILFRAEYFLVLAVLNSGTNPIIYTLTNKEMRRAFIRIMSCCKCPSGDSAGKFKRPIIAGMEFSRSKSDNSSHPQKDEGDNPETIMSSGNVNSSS

| Structure (SMILES) | inhibition at 3.7 µM [%] | inhibition at 3.5 µM [1] [%] | also measured |
| --- | --- | --- | --- |
| CCn1c([C@@H](C)NS(=O)(=O)c2ccc(NC(N)=O)cc2)nc2ccc(C(F)(F)F)cc21 [Example 112, (R)-N-(1-(1-Ethyl-6-(trifluoromethyl)-1H-benzo[d]imidazol-2-yl)ethyl)-4-ureidobenzenesulfonamide] | – | – | % inhibition [1]: [drawing 124] (R)-N-(1-(1-Ethyl-6- (trifluoromethyl)-1H- benzo[d]imidazol-2-yl)ethyl)- 4-ureidobenzenesulfonamide (Inactive at 3.50 μM) |
| CCn1c([C@@H](C)NS(=O)(=O)c2ccc(Cl)cc2)nc2ccc(CN3CCOCC3)cc21 [Example 75, 4-Chloro-N-{(1R)-1-[1-ethyl-6-(morpholin-4-ylmethyl)-1H-benzimidazol-2-yl]ethyl}benzenesulfonamide] | 37.2 | – | – |
| CCn1c(C(Cc2cccnc2)NS(=O)(=O)c2ccc(Cl)cc2)nc2ccccc21 (stereo not shown) [Example 7, 4-Chloro-N-[1-(1-ethyl-1H-benzimidazol-2-yl)-2-pyridin-3-yl-ethyl]benzene-sulfonamide] | 79.7 | – | – |
| CCn1c([C@@H](C)NS(=O)(=O)c2c(F)cc(F)cc2F)nc2ccc(C(F)(F)F)cc21 [Example 51, N-{(1R)-1-[1-Ethyl-6-(trifluoromethyl)-1H-benzimidazol-2-yl]ethyl}-2,4,6-trifluorobenzenesulfonamide] | 92.8 | – | – |
| CCn1c(C(C)NS(=O)(=O)c2ccc(Cl)cc2)nc2c(OC)nccc21 (stereo not shown) [Example 95, 4-chloro-N-[1-(1-ethyl-4-methoxy-1H-imidazo[4,5-c]pyridin-2-yl)ethyl]benzenesulfonamide] | – | 47.7 | – |
| CCn1c([C@@H](C)NS(=O)(=O)c2ccc(Cl)cc2)nc2cc(-c3ccncc3)ccc21 [Example 83, 4-Chloro-N-[(1R)-1-(1-ethyl-5-pyridin-4-yl-1H-benzimidazol-2-yl)ethyl]benzenesulfonamide] | 16.4 | – | – |
| CCn1c([C@@H](C)NS(=O)(=O)c2ccc(Cl)cc2)nc2cc(Cl)c(Cl)cc21 [Example 22, (R)-4-Chloro-N-[1-(5,6-dichloro-1-ethyl-1H-benzoimidazol-2-yl)ethyl]-benzenesulfonamide] | 63.5 | – | – |
| CCn1c(C(C)NS(=O)(=O)c2ccc(Cl)cc2)nc2cnc(C(F)(F)F)nc21 (stereo not shown) [Example 96, 4-chloro-N-{1-[9-ethyl-2-(trifluoromethyl)-9H-purin-8-yl]ethyl}benzenesulfonamide] | 81.7 | – | – |
| CCn1c([C@@H](C)NS(=O)(=O)c2ccc(Cl)cc2)nc2cc(F)c(F)c(F)c21 [Example 91, (R)-4-Chloro-N-[1-(1-ethyl-5,6,7-trifluoro-1H-benzoimidazol-2-yl)-ethyl]-benzenesulfonamide] | – | – | inhibition at 1 µM (at 1 μM (titrated with 3.50 μM as top concentration)): 91.8% |
| CCn1c([C@@H](C)NS(=O)(=O)c2ccc(Cl)cc2)nc2cc(Br)ccc21 [Example 81, N-[(1R)-1-(5-Bromo-1-ethyl-1H-benzimidazol-2-yl)ethyl]-4-chlorobenzenesulfonamide] | 91.6 | – | – |
| CCn1c([C@@H](C)NS(=O)(=O)c2ccc(Cl)cc2)nc2cccc(OC)c21 [Example 11, 4-Chloro-N-[(1R)-1-(1-ethyl-7-methoxy-1H-benzimidazol-2-yl)ethyl]benzene-sulfonamide] | 82 | – | – |

The next lines start with results.

| inhibition at 3.7 µM [%] | inhibition at 3.5 µM [1] [%] | Structure (SMILES) | also measured |
| --- | --- | --- | --- |
| 41.3 | – | CCn1c([C@@H](C)NS(=O)(=O)c2cn(C)c(C)n2)nc2ccc(C(F)(F)F)cc21 [Example 42, N-{(1R)-1-[1-Ethyl-6-(trifluoromethyl)-1H-benzimidazol-2-yl]ethyl}-1,2-dimethyl-1H-imidazole-4-sulfonamide] | – |
| – | 86 | CCn1c([C@@H](C)NS(=O)(=O)c2ccc(CCl)cc2)nc2ccc(C(F)(F)F)cc21 [Example 166, (R)-4-(Chloromethyl)-N-(1-(1-ethyl-6-(trifluoromethyl)-1H-benzo[d]imidazol-2-yl)ethyl)benzenesulfonamide] | – |
| 77.5 | – | CCCn1ncc(S(=O)(=O)N[C@H](C)c2nc3ccc(C(F)(F)F)cc3n2CC)c1C [Example 54, N-{(1R)-1-[1-Ethyl-6-(trifluoromethyl)-1H-benzimidazol-2-yl]ethyl}-5-methyl-1-propyl-1H-pyrazole-4-sulfonamide] | – |
| – | 73.3 | CCn1c(C(C)NS(=O)(=O)c2ccc(=O)[nH]c2)nc2ccc(C(F)(F)F)cc21 (stereo not shown) [Example 171, N-(1-(1-ethyl-6-(trifluoromethyl)-1H-benzo[d]imidazol-2-yl)ethyl)-6-oxo-1,6-dihydropyridine-3-sulfonamide] | – |
| – | 94.4 | CCn1c([C@@H](C)NS(=O)(=O)c2ccc(Cl)cc2)nc2ccc(CO)cc21 (stereo in doubt) [Example 68, 4-Chloro-N-{1-[1-ethyl-6-(hydroxymethyl)-1H-benzimidazol-2-yl]ethyl}benzenesulfonamide] | – |
| – | 85.3 | CCn1c([C@@H](C)NS(=O)(=O)c2ccc(C)cc2)nc2ccc(C(F)(F)F)cc21 [Example 115, (R)-N-(1-(1-Ethyl-6-(trifluoromethyl)-1H-benzo[d]imidazol-2-yl)ethyl)-4-methylbenzenesulfonamide] | – |
| 84.5 | – | CCCn1cc(S(=O)(=O)N[C@H](C)c2nc3ccc(C(F)(F)F)cc3n2CC)c(C)n1 [Example 53, N-{(1R)-1-[1-Ethyl-6-(trifluoromethyl)-1H-benzimidazol-2-yl]ethyl}-3-methyl-1-propyl-1H-pyrazole-4-sulfonamide] | – |
| – | 86 | CCn1c([C@@H](C)NS(=O)(=O)c2ccc(CC#N)cc2)nc2ccc(C(F)(F)F)cc21 [Example 167, (R)-4-(cyanomethyl)-N-(1-(1-ethyl-6-(trifluoromethyl)-1H-benzo[d]imidazol-2-yl)ethyl)benzenesulfonamide] | – |
| – | 88.4 | CCOc1ccc(S(=O)(=O)N[C@H](C)c2nc3ccc(C(F)(F)F)cc3n2CC)cc1 [Example 157, (R)-4-Ethoxy-N-(1-(1-ethyl-6-(trifluoromethyl)-1H-benzo[d]imidazol-2-yl)ethyl)benzenesulfonamide] | – |
| 58.3 | – | CCn1c([C@@H](C)NS(=O)(=O)c2c(C)noc2C)nc2ccc(C(F)(F)F)cc21 [Example 37, N-{(1R)-1-[1-Ethyl-6-(trifluoromethyl)-1H-benzimidazol-2-yl]ethyl}-3,5-dimethylisoxazole-4-sulfonamide] | – |
| – | 90 | CCn1c([C@@H](C)NS(=O)(=O)c2ccc(F)cc2)nc2ccc(C(F)(F)F)cc21 [Example 25, N-{(1R)-1-[1-Ethyl-6-(trifluoromethyl)-1H-benzimidazol-2-yl]ethyl}-4-fluorobenzenesulfonamide] | – |
| – | 93.9 | CCn1c([C@@H](C)NS(=O)(=O)c2ccc3c(c2)OCCO3)nc2ccc(C(F)(F)F)cc21 [Example 44, N-{(1R)-1-[1-Ethyl-6-(trifluoromethyl)-1H-benzimidazol-2-yl]ethyl}-2,3-dihydro-1,4-benzodioxine-6-sulfonamide] | – |
| – | 64.1 | CCn1c([C@@H](C)NS(=O)(=O)c2ccc(CC(C)C)cc2)nc2ccc(C(F)(F)F)cc21 [Example 116, N-{(1R)-1-[1-Ethyl-6-(trifluoromethyl)-1H-benzimidazol-2-yl]ethyl}-4-isobutylbenzenesulfonamide] | – |
| – | 85.7 | CCn1c([C@@H](C)NS(=O)(=O)c2ccc(F)c(C#N)c2)nc2ccc(C(F)(F)F)cc21 [Example 27, 3-Cyano-N-{(1R)-1-[1-ethyl-6-(trifluoromethyl)-1H-benzimidazol-2-yl]ethyl}-4-fluorobenzenesulfonamide] | – |
